Results from publication PMC7163368 (British Journal of Clinical Pharmacology, 2020).

Experiment: Safety and tolerability: adverse events, laboratory, ECG, physical examination
Type: in vivo, human
[1] = s.c. single dose 120 mg (n = 5)

SMILES: O=C(CN[C@@H]1CCNC1)N1CCC[C@H]1B(O)O [dutogliptin]
- Pain without touching, related: subjects with at least 1 AE (s.c. multidose 60 mg (n = 5)): 0
- Swelling, related: subjects with at least 1 AE (s.c. multidose 60 mg (n = 5)): 0
- Systemic AEs, related: subjects with at least 1 AE (s.c. multidose 60 mg (n = 5)): 1 (20%)
- All AEs, related: subjects with at least 1 AE (s.c. multidose 90 mg (n = 5)): 5 (100%)
- Erythema, related: subjects with at least 1 AE (s.c. multidose 90 mg (n = 5)): 5 (100%)
- Fatigue, related: subjects with at least 1 AE (s.c. multidose 90 mg (n = 5)): 1 (20%)
- Headache, related: subjects with at least 1 AE (s.c. multidose 90 mg (n = 5)): 1 (20%)
- Hematoma, related: subjects with at least 1 AE (s.c. multidose 90 mg (n = 5)): 1 (20%)
- Induration, related: subjects with at least 1 AE (s.c. multidose 90 mg (n = 5)): 4 (80%)
- Local AEs, related: subjects with at least 1 AE (s.c. multidose 90 mg (n = 5)): 5 (100%)
- Other local AEs, related: subjects with at least 1 AE (s.c. multidose 90 mg (n = 5)): 0
- Other systemic AEs (dizziness and nausea), related: subjects with at least 1 AE (s.c. multidose 90 mg (n = 5)): 2 (40%)
- Pain with touching, related: subjects with at least 1 AE (s.c. multidose 90 mg (n = 5)): 2 (40%)
- Pain without touching, related: subjects with at least 1 AE (s.c. multidose 90 mg (n = 5)): 1 (20%)
- Swelling, related: subjects with at least 1 AE (s.c. multidose 90 mg (n = 5)): 1 (20%)
- Systemic AEs, related: subjects with at least 1 AE (s.c. multidose 90 mg (n = 5)): 4 (80%)
- All AEs, related: subjects with at least 1 AE (s.c. multidose 120 mg (n = 5)): 5 (100%)
- Erythema, related: subjects with at least 1 AE (s.c. multidose 120 mg (n = 5)): 5 (100%)
- Fatigue, related: subjects with at least 1 AE (s.c. multidose 120 mg (n = 5)): 0
- Headache, related: subjects with at least 1 AE (s.c. multidose 120 mg (n = 5)): 0
- Hematoma, related: subjects with at least 1 AE (s.c. multidose 120 mg (n = 5)): 0
- Induration, related: subjects with at least 1 AE (s.c. multidose 120 mg (n = 5)): 3 (60%)
- Local AEs, related: subjects with at least 1 AE (s.c. multidose 120 mg (n = 5)): 5 (100%)
- Other local AEs, related: subjects with at least 1 AE (s.c. multidose 120 mg (n = 5)): 0
- Other systemic AEs, related: subjects with at least 1 AE (s.c. multidose 120 mg (n = 5)): 0
- Pain with touching, related: subjects with at least 1 AE (s.c. multidose 120 mg (n = 5)): 2 (40%)
- Pain without touching, related: subjects with at least 1 AE (s.c. multidose 120 mg (n = 5)): 2 (40%)
- Swelling, related: subjects with at least 1 AE (s.c. multidose 120 mg (n = 5)): 0
- Systemic AEs, related: subjects with at least 1 AE (s.c. multidose 120 mg (n = 5)): 0
- All AEs, related: subjects with at least 1 AE (s.c. single dose 30 mg (n = 5)): 5 (100%)
- Erythema, related: subjects with at least 1 AE (s.c. single dose 30 mg (n = 5)): 5 (100%)
- Fatigue, related: subjects with at least 1 AE (s.c. single dose 30 mg (n = 5)): 0
- Headache, related: subjects with at least 1 AE (s.c. single dose 30 mg (n = 5)): 0
- Hematoma, related: subjects with at least 1 AE (s.c. single dose 30 mg (n = 5)): 0
- Induration, related: subjects with at least 1 AE (s.c. single dose 30 mg (n = 5)): 0
- Local AEs, related: subjects with at least 1 AE (s.c. single dose 30 mg (n = 5)): 5 (100%)
- Other local AEs, related: subjects with at least 1 AE (s.c. single dose 30 mg (n = 5)): 0
- Other systemic AEs, related: subjects with at least 1 AE (s.c. single dose 30 mg (n = 5)): 0
- Pain with touching, related: subjects with at least 1 AE (s.c. single dose 30 mg (n = 5)): 1 (20%)
- Pain without touching, related: subjects with at least 1 AE (s.c. single dose 30 mg (n = 5)): 0
- Swelling, related: subjects with at least 1 AE (s.c. single dose 30 mg (n = 5)): 0
- Systemic AEs, related: subjects with at least 1 AE (s.c. single dose 30 mg (n = 5)): 0
- All AEs, related: subjects with at least 1 AE (s.c. single dose 60 mg (n = 5)): 5 (100%)
- Erythema, related: subjects with at least 1 AE (s.c. single dose 60 mg (n = 5)): 5 (100%)
- Fatigue, related: subjects with at least 1 AE (s.c. single dose 60 mg (n = 5)): 0
- Headache, related: subjects with at least 1 AE (s.c. single dose 60 mg (n = 5)): 0
- Hematoma, related: subjects with at least 1 AE (s.c. single dose 60 mg (n = 5)): 0
- Induration, related: subjects with at least 1 AE (s.c. single dose 60 mg (n = 5)): 1 (20%)
- Local AEs, related: subjects with at least 1 AE (s.c. single dose 60 mg (n = 5)): 5 (100%)
- Other local AEs, related: subjects with at least 1 AE (s.c. single dose 60 mg (n = 5)): 0
- Other systemic AEs, related: subjects with at least 1 AE (s.c. single dose 60 mg (n = 5)): 0
- Pain with touching, related: subjects with at least 1 AE (s.c. single dose 60 mg (n = 5)): 0
- Pain without touching, related: subjects with at least 1 AE (s.c. single dose 60 mg (n = 5)): 0
- Swelling, related: subjects with at least 1 AE (s.c. single dose 60 mg (n = 5)): 0
- Systemic AEs, related: subjects with at least 1 AE (s.c. single dose 60 mg (n = 5)): 0
- All AEs, related: subjects with at least 1 AE (s.c. single dose 90 mg (n = 5)): 5 (100%)
- Erythema, related: subjects with at least 1 AE (s.c. single dose 90 mg (n = 5)): 5 (100%)
- Fatigue, related: subjects with at least 1 AE (s.c. single dose 90 mg (n = 5)): 0
- Headache, related: subjects with at least 1 AE (s.c. single dose 90 mg (n = 5)): 0
- Hematoma, related: subjects with at least 1 AE (s.c. single dose 90 mg (n = 5)): 1 (20%)
- Induration, related: subjects with at least 1 AE (s.c. single dose 90 mg (n = 5)): 0
- Local AEs, related: subjects with at least 1 AE (s.c. single dose 90 mg (n = 5)): 5 (100%)
- Other local AEs, related: subjects with at least 1 AE (s.c. single dose 90 mg (n = 5)): 0
- Other systemic AEs, related: subjects with at least 1 AE (s.c. single dose 90 mg (n = 5)): 0
- Pain with touching, related: subjects with at least 1 AE (s.c. single dose 90 mg (n = 5)): 0
- Pain without touching, related: subjects with at least 1 AE (s.c. single dose 90 mg (n = 5)): 0
- Swelling, related: subjects with at least 1 AE (s.c. single dose 90 mg (n = 5)): 1 (20%)
- Systemic AEs, related: subjects with at least 1 AE (s.c. single dose 90 mg (n = 5)): 0
- All AEs, related: subjects with at least 1 AE [1]: 5 (100%)
- Erythema, related: subjects with at least 1 AE [1]: 4 (80%)
- Fatigue, related: subjects with at least 1 AE [1]: 0
- Headache, related: subjects with at least 1 AE [1]: 1 (20%)
- Hematoma, related: subjects with at least 1 AE [1]: 1 (20%)
- Induration, related: subjects with at least 1 AE [1]: 2 (40%)
- Local AEs, related: subjects with at least 1 AE [1]: 4 (80%)
- Other local AEs (burning sensation at the injection site), related: subjects with at least 1 AE [1]: 1 (20%)
- Other systemic AEs, related: subjects with at least 1 AE [1]: 0
- Pain with touching, related: subjects with at least 1 AE [1]: 0
- Pain without touching, related: subjects with at least 1 AE [1]: 0
- Swelling, related: subjects with at least 1 AE [1]: 0
- Systemic AEs, related: subjects with at least 1 AE [1]: 1 (20%)
